Source: patent publication US10047092B2 (Janssen Pharmaceutica NV, priority 2013, dated 2018)

Biological target: P2X7 (Homo sapiens (Human), UniProt Q99572)
Test: P2X7 antagonism in human PBMCs (IL-1β release, LPS + Bz-ATP)
Assay type: cell-based
Details: LPS 30 ng/ml + 0.5 mM Bz-ATP; for remaining activity at 10 µM: P2X7, 10 μM test compound, read-out: PBMC 10 μM (% control); for PBMC 10 μM (% control): 10 μM test compound
Experimental: P2X7 Antagonism in Human Peripheral Blood Mononuclear Cells (PBMCs) and Mouse/Human Whole Blood.
Human blood was collected using a blood donor program. PBMCs were isolated from blood using a Ficoll density gradient technique. Briefly, blood was laid on Ficoll solution and centrifuged at RT for 20 minutes at 2000 rpm. The buffy layer (between red blood cells and plasma) was carefully collected by aspiration, washed with PBS and centrifuged again at 1500 rpm for 15 minutes. The resulting cell pellet was washed and plated on 96 well-plates for experiments. For the Mouse/Human Whole Blood experiments, 150 μl of either mouse or human blood was platted on 96 well-plates. Lipopolysaccharide (LPS) (30 ng/ml) was added to each well and incubated for 1 hour. Test compounds were then added and incubated for 30 minutes. The P2X7 agonist, 2′(3′)-O-(4-benzoylbenzoyl) adenosine 5′-triphosphate (Bz-ATP) was then added at a final concentration of 0.5 mM (PBMC) or 1 mM (blood). Cells were incubated for an additional 1.5 hours. At that point, supernatant was collected and stored for IL-1β assay using manufacturer's protocol for enzyme-linked immunosorbent assay (ELISA). Data was expressed as percent control, where control is defined as the difference in IL-113 release in LPS+Bz-ATP samples and LPS only samples. Data was plotted as response (% control) versus concentration to generate IC50 values. […] In Table 2, when the data cell has been left blank, it is intended to mean that the compound was not tested in that assay.

Chain of P2X7 (Q99572 whole entry): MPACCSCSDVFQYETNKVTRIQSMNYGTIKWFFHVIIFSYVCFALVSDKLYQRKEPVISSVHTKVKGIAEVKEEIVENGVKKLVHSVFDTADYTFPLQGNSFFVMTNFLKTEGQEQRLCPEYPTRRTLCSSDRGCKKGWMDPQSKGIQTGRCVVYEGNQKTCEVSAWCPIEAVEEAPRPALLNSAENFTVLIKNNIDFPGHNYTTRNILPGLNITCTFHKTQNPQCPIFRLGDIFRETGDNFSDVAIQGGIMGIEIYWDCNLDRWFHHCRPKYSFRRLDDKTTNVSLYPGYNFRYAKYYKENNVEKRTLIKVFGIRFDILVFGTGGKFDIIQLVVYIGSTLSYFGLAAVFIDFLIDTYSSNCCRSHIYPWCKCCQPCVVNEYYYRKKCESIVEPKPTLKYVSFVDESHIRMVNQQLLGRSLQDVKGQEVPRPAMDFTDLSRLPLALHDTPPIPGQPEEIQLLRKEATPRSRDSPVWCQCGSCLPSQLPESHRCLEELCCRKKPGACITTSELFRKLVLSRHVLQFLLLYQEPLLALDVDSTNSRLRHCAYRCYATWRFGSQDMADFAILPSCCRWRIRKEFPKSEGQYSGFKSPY

| remaining activity at 10 µM [%] | Compound | PBMC 10 μM (% control) |
| --- | --- | --- |
| 15.9 | O=C1c2nnc(-c3ncccn3)n2C[C@@H](C2CC2)N1Cc1cccc(C(F)(F)F)c1Cl (single isomer, unassigned) [Example 65, (6R*)-7-[2-Chloro-3-(trifluoromethyl)benzyl]-6-cyclopropyl-3-pyrimidin-2-yl-6,7-dihydro[1,2,4]triazolo[4,3-a]pyrazin-8(5H)-one] |  |
| 20.7 | O=C1c2nnc(-c3ncccn3)n2C[C@H](C2CC2)N1Cc1cccc(C(F)(F)F)c1Cl (single isomer, unassigned) [Example 66, (6S*)-7-[2-Chloro-3-(trifluoromethyl)benzyl]-6-cyclopropyl-3-pyrimidin-2-yl-6,7-dihydro[1,2,4]triazolo[4,3-a]pyrazin-8(5H)-one] |  |
|  | C[C@H]1Cn2c(nnc2-c2cnccn2)C(=O)N1Cc1cccc(Cl)c1Cl [Example 13, (6S)-7-(2,3-Dichlorobenzyl)-6-methyl-3-pyrazin-2-yl-6,7-dihydro[1,2,4]triazolo[4,3-a]pyrazin-8(5H)-one] | 15.4 |
|  | C[C@H]1Cn2c(nnc2-c2cnccn2)C(=O)N1Cc1cccc(C(F)(F)F)c1Cl [Example 16, (6S)-7-[2-Chloro-3-(trifluoromethyl)benzyl]-6-methyl-3-pyrazin-2-yl-6,7-dihydro[1,2,4]triazolo[4,3-a]pyrazin-8(5H)-one] | 13.4 |
|  | CC[C@H]1Cn2c(nnc2-c2cnccn2)C(=O)N1Cc1cccc(C(F)(F)F)c1Cl [Example 71, (6S)-7-[2-Chloro-3-(trifluoromethyl)benzyl]-6-ethyl-3-pyrazin-2-yl-6,7-dihydro[1,2,4]triazolo[4,3-a]pyrazin-8(5H)-one] | 1.2 |
|  | CC(c1cccc(C(F)(F)F)c1Cl)N1C(=O)c2nnc(-c3cnccn3)n2C[C@@H]1C (stereo partly drawn) [Example 93] | 4.5 |
